Assay results reported in PubChem BioAssay (NCI).
Where “and” joins values, the source holds several entries; their conditions need not be identical. Identical values can stand only once.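 In this assay, cells in 96-well plates receive the compound at five concentrations for 48 hours. Endpoints are linearly interpolated between the surrounding concentrations. Here, GI50 denotes the concentration required for 50% inhibition of growth. The concentration for full growth arrest is given as TGI.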

Key:
Test in all cases: DTP human tumour cell line panel, 48 h; in the data active = GI50 below about 0.43 µM; inactive = the rest
SK-MEL-28 melanoma = test system: SK-MEL-28 melanoma
HCT-15 colon = test system: HCT-15 colon
NCI-H23 lung = test system: NCI-H23 lung
HOP-62 NSCLC = test system: HOP-62 NSCLC
SW-620 colon = test system: SW-620 colon
DU-145 prostate = test system: DU-145 prostate
SN12C renal = test system: SN12C renal
HCT-116 colon = test system: HCT-116 colon
OVCAR-5 ovarian = test system: OVCAR-5 ovarian
RXF 393 renal = test system: RXF 393 renal
SNB-75 CNS = test system: SNB-75 CNS
HL-60(TB) leukemia = test system: HL-60(TB) leukemia
HCC-2998 colon = test system: HCC-2998 colon
MCF7 breast = test system: MCF7 breast
SK-OV-3 ovarian = test system: SK-OV-3 ovarian
NCI-H226 lung = test system: NCI-H226 lung
KM12 colon = test system: KM12 colon
MDA-N = test system: MDA-N
PC-3 prostate = test system: PC-3 prostate
SF-268 CNS = test system: SF-268 CNS
BT-549 breast = test system: BT-549 breast
UACC-257 melanoma = test system: UACC-257 melanoma
LOX IMVI melanoma = test system: LOX IMVI melanoma
T-47D breast = test system: T-47D breast
ACHN renal = test system: ACHN renal
SNB-19 CNS = test system: SNB-19 CNS
K-562 leukemia = test system: K-562 leukemia
SK-MEL-5 melanoma = test system: SK-MEL-5 melanoma
MOLT-4 leukemia = test system: MOLT-4 leukemia
NCI/ADR-RES ovarian = test system: NCI/ADR-RES ovarian
MDA-MB-231 breast = test system: MDA-MB-231 breast
COLO 205 colon = test system: COLO 205 colon
NCI-H460 lung = test system: NCI-H460 lung
MDA-MB-435 = test system: MDA-MB-435
NCI-H522 lung = test system: NCI-H522 lung
EKVX NSCLC = test system: EKVX NSCLC
A498 renal = test system: A498 renal
RPMI-8226 leukemia = test system: RPMI-8226 leukemia
HOP-92 NSCLC = test system: HOP-92 NSCLC
786-0 renal = test system: 786-0 renal
CAKI-1 renal = test system: CAKI-1 renal
OVCAR-4 ovarian = test system: OVCAR-4 ovarian
CCRF-CEM leukemia = test system: CCRF-CEM leukemia
U251 CNS = test system: U251 CNS
SK-MEL-2 melanoma = test system: SK-MEL-2 melanoma
UO-31 renal = test system: UO-31 renal
UACC-62 melanoma = test system: UACC-62 melanoma
M14 melanoma = test system: M14 melanoma
TK-10 renal = test system: TK-10 renal
SF-295 CNS = test system: SF-295 CNS
OVCAR-3 ovarian = test system: OVCAR-3 ovarian
SR leukemia = test system: SR leukemia
A549 NSCLC = test system: A549 NSCLC
SF-539 CNS = test system: SF-539 CNS
MALME-3M melanoma = test system: MALME-3M melanoma

CCCCCCCCCCC(O)C1CCC(C2CCC(C(O)CCCCC(O)CCCCCC(O)CC3=CC(C)OC3=O)O2)O1 (centres undefined)
8.62 µM and > 25 µM: TGI (HL-60(TB) leukemia)
9.95 µM and > 25 µM: TGI (UO-31 renal)
inactive: GI50 (SK-MEL-28 melanoma) 4.28 µM | GI50 (HCT-15 colon) 4.64 µM | GI50 (HOP-62 NSCLC) 7.3 µM | GI50 (SW-620 colon) 3.93 µM | GI50 (DU-145 prostate) > 25 µM | GI50 (SN12C renal) > 25 µM | GI50 (HCT-116 colon) 1.04 µM | GI50 (SNB-75 CNS) > 25 µM | GI50 (HL-60(TB) leukemia) > 25 µM | GI50 (MCF7 breast) 23.5 µM | GI50 (NCI-H226 lung) > 25 µM | GI50 (KM12 colon) > 25 µM | GI50 (MDA-N) > 25 µM | GI50 (PC-3 prostate) 2.79 µM | GI50 (SF-268 CNS) > 25 µM | GI50 (UACC-257 melanoma) 0.452 µM | GI50 (T-47D breast) 7.17 µM | GI50 (ACHN renal) 1.59 µM | GI50 (SNB-19 CNS) 1.41 µM | GI50 (K-562 leukemia) 1.81 µM | GI50 (SK-MEL-5 melanoma) 1.83 µM | GI50 (MOLT-4 leukemia) 2.57 µM | GI50 (NCI/ADR-RES ovarian) > 25 µM | GI50 (MDA-MB-231 breast) 4.82 µM | GI50 (COLO 205 colon) 3.09 µM | GI50 (NCI-H460 lung) 10.7 µM | GI50 (MDA-MB-435) 1.51 µM | GI50 (EKVX NSCLC) > 25 µM | GI50 (A498 renal) 5.27 µM | GI50 (RPMI-8226 leukemia) 2 µM | GI50 (HOP-92 NSCLC) 3.87 µM | GI50 (786-0 renal) 3.53 µM | GI50 (CCRF-CEM leukemia) 1.58 µM | GI50 (U251 CNS) 5.65 µM | GI50 (SK-MEL-2 melanoma) 3.62 µM | GI50 (UO-31 renal) 1.74 µM | GI50 (UACC-62 melanoma) > 25 µM | GI50 (M14 melanoma) 3.76 µM | GI50 (TK-10 renal) 1.98 µM | GI50 (SF-295 CNS) 2 µM | GI50 (OVCAR-3 ovarian) 2.16 µM | GI50 (A549 NSCLC) 1.93 µM
9.96 µM and > 25 µM: TGI (MDA-MB-435)
9.08 µM and > 25 µM: TGI (UACC-62 melanoma)
active: GI50 (NCI-H23 lung) 0.0144 µM | GI50 (LOX IMVI melanoma) 0.218 µM
2.6 µM and > 25 µM: TGI (LOX IMVI melanoma)
7.33 µM and > 25 µM: TGI (SK-MEL-5 melanoma)
9.65 µM and > 25 µM: TGI (OVCAR-3 ovarian)
9.15 µM and > 25 µM: TGI (COLO 205 colon)
> 25 µM: TGI (SK-MEL-28 melanoma) | TGI (HCT-15 colon) | TGI (NCI-H23 lung) | TGI (HOP-62 NSCLC) | TGI (SW-620 colon) | TGI (DU-145 prostate) | TGI (SN12C renal) | TGI (HCT-116 colon) | TGI (OVCAR-5 ovarian) | TGI (RXF 393 renal) | TGI (SNB-75 CNS) | TGI (HCC-2998 colon) | TGI (MCF7 breast) | TGI (SK-OV-3 ovarian) | TGI (NCI-H226 lung) | TGI (KM12 colon) | TGI (MDA-N) | TGI (PC-3 prostate) | TGI (SF-268 CNS) | TGI (BT-549 breast) | TGI (UACC-257 melanoma) | TGI (T-47D breast) | TGI (SNB-19 CNS) | TGI (K-562 leukemia) | TGI (MOLT-4 leukemia) | TGI (NCI/ADR-RES ovarian) | TGI (MDA-MB-231 breast) | TGI (NCI-H460 lung) | TGI (NCI-H522 lung) | TGI (EKVX NSCLC) | TGI (A498 renal) | TGI (RPMI-8226 leukemia) | TGI (HOP-92 NSCLC) | TGI (786-0 renal) | TGI (CAKI-1 renal) | TGI (OVCAR-4 ovarian) | TGI (CCRF-CEM leukemia) | TGI (U251 CNS) | TGI (SK-MEL-2 melanoma) | TGI (M14 melanoma) | TGI (TK-10 renal) | TGI (SF-295 CNS) | TGI (SR leukemia) | TGI (A549 NSCLC) | TGI (SF-539 CNS) | TGI (MALME-3M melanoma)
7.79 µM and > 25 µM: TGI (ACHN renal)
